The target of assay [1] is Estrogen receptor beta (Homo sapiens) (UniProt Q92731). Nature of the assay: Binding affinity to ERbeta (unknown origin) relative to estradiol.
For another assay, the species on record is Homo sapiens. The assay can be described thus: Selectivity ratio of RBA for ERbeta (unknown origin) to RBA for ERalpha (unknown origin).

Sequence of Estrogen receptor beta (Homo sapiens) (Q92731 whole entry): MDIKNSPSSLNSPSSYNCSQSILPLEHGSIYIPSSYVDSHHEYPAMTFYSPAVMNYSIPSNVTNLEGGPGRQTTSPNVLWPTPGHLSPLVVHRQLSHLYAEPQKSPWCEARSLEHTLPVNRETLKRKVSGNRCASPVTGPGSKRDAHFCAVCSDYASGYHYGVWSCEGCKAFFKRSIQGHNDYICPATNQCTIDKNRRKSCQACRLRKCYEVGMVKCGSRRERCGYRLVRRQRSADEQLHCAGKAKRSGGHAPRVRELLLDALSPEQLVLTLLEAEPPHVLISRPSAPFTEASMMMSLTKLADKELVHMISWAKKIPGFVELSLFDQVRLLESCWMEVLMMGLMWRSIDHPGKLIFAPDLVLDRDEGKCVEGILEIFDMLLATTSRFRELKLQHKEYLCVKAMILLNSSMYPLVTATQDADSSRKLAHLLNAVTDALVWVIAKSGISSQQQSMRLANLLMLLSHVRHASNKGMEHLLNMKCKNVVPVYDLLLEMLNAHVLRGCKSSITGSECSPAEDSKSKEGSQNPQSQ

Take `C[C@]12CC[C@H](c3ccc(O)cc3O)C[C@H]1CC[C@@H]2O`: the relative binding affinity (RBA) in assay [1] was found to be 3.97. For the same molecule, the Selectivity ratio in the assay filed under Homo sapiens came out at 15.3.
The matching figures for `Cc1cc(O)ccc1[C@H]1CC[C@@]2(C)[C@@H](CC[C@@H]2O)C1`: 1.3 and 2.8.
The like results for `C[C@]12CC=C(c3ccc(O)cc3Cl)C[C@@H]1CC[C@@H]2O` were, in that order, 14.1 and 1.5.
The matching figures for `C[C@]12CC=C(c3cc(F)c(O)cc3F)C[C@H]1CC[C@@H]2O`: 2.7 and 6.1.
Regarding `COc1cc(O)ccc1[C@H]1CC[C@@]2(C)[C@H](CC[C@@H]2O)C1`, the relative binding affinity (RBA) in assay [1] is 0.123. Further, in the assay filed under Homo sapiens, the Selectivity ratio is 7.7.
The matching figures for `C[C@]12CC=C(c3cc(F)c(O)c(F)c3F)C[C@@H]1CC[C@@H]2O`: 0.076 and 0.8.
For the molecule `C[C@]12CC[C@H](c3ccc(O)c(F)c3F)C[C@@H]1CC[C@@H]2O`, the relative binding affinity (RBA) in assay [1] was determined as 7.3. The Selectivity ratio in the assay listed under Homo sapiens was 7.9.
The like results for `C[C@]12CC[C@H](c3ccc(O)cc3F)C[C@H]1CC[C@@H]2O` were, in that order, 136 and 5.
The like results for `C[C@]12CC=C(c3ccc(O)c(F)c3Cl)C[C@H]1CC[C@@H]2O` were, in that order, 149 and 3.
The matching figures for `C[C@]12CC=C(c3ccc(O)cc3C(F)(F)F)C[C@H]1CC[C@@H]2O`: 174 and 1.4.
As for `C[C@]12CC[C@H](c3ccc(O)cc3C(F)(F)F)C[C@@H]1CC[C@@H]2O`, the relative binding affinity (RBA) in assay [1] is 4.9. The Selectivity ratio in the assay filed under Homo sapiens turned out to be 1.
The like results for `C[C@]12CC=C(c3ccc(O)cc3Cl)C[C@H]1CC[C@@H]2O` were, in that order, 118 and 2.
The like results for `C[C@]12CC=C(c3ccc(O)cc3)C[C@H]1CC[C@@H]2O` were, in that order, 6.8 and 17.
In assay [1], `C[C@]12CC[C@H](c3ccc(O)cc3F)C[C@@H]1CC[C@@H]2O` showed a relative binding affinity (RBA) of 13.6. For the same molecule, the Selectivity ratio in the assay listed under Homo sapiens was 3.2.
`C[C@]12CC=C(c3ccc(O)cc3)C[C@@H]1CC[C@@H]2O` yielded a relative binding affinity (RBA) in assay [1] of 17.3. Besides, the Selectivity ratio in the assay filed under Homo sapiens amounted to 4.7.
The like results for `C[C@]12CC=C(c3cc(F)c(O)c(F)c3Cl)C[C@H]1CC[C@@H]2O` were, in that order, 6 and 1.8.
The matching figures for `C[C@]12CC[C@H](c3ccc(O)c(F)c3)C[C@H]1CC[C@@H]2O`: 8.7 and 8.4.
The matching figures for `C[C@]12CC=C(c3ccc(O)cc3F)C[C@H]1CC[C@@H]2O`: 49 and 11.
With `C[C@]12CC[C@H](c3ccc(O)cc3)C[C@H]1CC[C@@H]2O`, the relative binding affinity (RBA) in assay [1] is 21.5. Besides, the Selectivity ratio in the assay filed under Homo sapiens amounted to 14.6.
The like results for `COc1cc(O)ccc1C1=CC[C@@]2(C)[C@@H](CC[C@@H]2O)C1` were, in that order, 0.029 and 4.8.
The matching figures for `C[C@]12CC=C(c3ccc(O)cc3F)C[C@@H]1CC[C@@H]2O`: 38 and 1.7.
The like results for `Cc1c([C@H]2CC[C@@]3(C)[C@@H](CC[C@@H]3O)C2)cc(F)c(O)c1F` were, in that order, 0.226 and 2.8.
`C[C@]12CC[C@H](c3ccc(O)c(F)c3)C[C@@H]1CC[C@@H]2O` had a relative binding affinity (RBA) in assay [1] of 6.84. Moreover, the Selectivity ratio in the assay listed under Homo sapiens is 4.1.
On to `C[C@]12CC[C@H](c3ccc(O)cc3O)C[C@@H]1CC[C@@H]2O`, for which the relative binding affinity (RBA) in assay [1] was 0.15. Moreover, the Selectivity ratio in the assay filed under Homo sapiens is 4.1.
With `C[C@]12CC[C@H](c3cc(F)c(O)c(F)c3F)C[C@@H]1CC[C@@H]2O`, the relative binding affinity (RBA) in assay [1] worked out at 0.097. For the same molecule, in the assay filed under Homo sapiens, the Selectivity ratio was 3.3.
The matching figures for `Cc1c([C@H]2CC[C@@]3(C)[C@H](CC[C@@H]3O)C2)cc(F)c(O)c1F`: 5.35 and 7.1.
The like results for `COc1cc(O)ccc1C1=CC[C@@]2(C)[C@H](CC[C@@H]2O)C1` were, in that order, 0.022 and 5.5.
The like results for `COc1cc(O)ccc1[C@H]1CC[C@@]2(C)[C@@H](CC[C@@H]2O)C1` were, in that order, 0.037 and 3.7.
`C[C@]12CC=C(c3ccc(O)c(Cl)c3Cl)C[C@H]1CC[C@@H]2O` showed a relative binding affinity (RBA) in assay [1] of 55. Moreover, in the assay filed under Homo sapiens, the Selectivity ratio is 18.3.
The matching figures for `C[C@]12CC[C@H](c3ccc(O)cc3)C[C@@H]1CC[C@@H]2O`: 10 and 4.2.
The like results for `Cc1cc(O)ccc1[C@H]1CC[C@@]2(C)[C@H](CC[C@@H]2O)C1` were, in that order, 33.6 and 11.9.
The like results for `C[C@]12CC[C@H](c3cc(F)c(O)c(F)c3F)C[C@H]1CC[C@@H]2O` were, in that order, 1.73 and 9.3.
In the case of `C[C@]12CC[C@H](c3ccc(O)c(F)c3F)C[C@H]1CC[C@@H]2O`, the relative binding affinity (RBA) in assay [1] turned out to be 42.8. Besides, the Selectivity ratio in the assay listed under Homo sapiens is 9.3.

Values taken from ChEMBL document CHEMBL3352468, “Synthesis and receptor binding in trans-CD ring-fused A-CD estrogens: comparison with the cis-fused isomers” (Bioorg Med Chem Lett, 2014).
